Values of other authors in patent US4380639A, “Substituted 1,2,5-thiadiazole derivatives” (Bristol-Myers Company, priority 1981, dated 1983).

Experiments:
[1] = in vivo
peptic ulcer disease = settings: clinical evaluation, Gray et al., Lancet 1977

CNC(=S)NCCCCc1cnc[nH]1 [Burimamide]
oral absorption [1]: oral absorption is poor

CNC(=NC#N)NCCSCc1[nH]cnc1C [Cimetidine]
H2 -antagonist potency/effectiveness relative to comparator (H2 -receptor): as effective an H2 -antagonist as metiamide
therapeutic effectiveness in peptic ulcer disease (peptic ulcer disease): effective therapeutic agent in the treatment of peptic ulcer disease

CNC(=S)NCCSCc1[nH]cnc1C [Metiamide]
H2 -antagonist potency/effectiveness relative to comparator (H2 -receptor): more potent than burimamide
